Test: Inhibition of CYP1A2 (unknown origin)

Row | IC50 | Compound
1 | < 500 µM | FC(F)(F)c1nccc2cc(Nc3n[nH]c4nccnc34)ccc12 [N-(1H-pyrazolo[3,4-b]pyrazin-3-yl)-1-(trifluoromethyl) isoquinolin-6-amine]
2 | < 500 µM | FC(F)(F)c1nccc2cc(Nc3n[nH]c4cccnc34)ccc12 [N-(1H-pyrazolo[4,3-b]pyridin-3-yl)-1-(trifluoromethyl) isoquinolin-6-amine]
